Assay results from the NIST ThermoML archive (doi:10.1021/je060271a).
Numbers after ± are expanded uncertainties.

Settings: 323.14 K, Liquid, Vibrating tube method

CCCCCCC(=O)OCC(COC(=O)CCCCCC)(COC(=O)CCCCCC)COC(=O)CCCCCC [pentaerythritol tetraheptanoate]
Settings	mass density [kg/m3]
141.6 kPa	955.8 ± 1.2
142.1 kPa	955.7 ± 1.2
142.7 kPa	955.7 ± 1.2
143.5 kPa	955.7 ± 1.2
146.5 kPa	955.7 ± 1.2
148.2 kPa	955.7 ± 1.2
149.1 kPa	955.7 ± 1.2
149.8 kPa	955.7 ± 1.2
150.7 kPa	955.7 ± 1.2
151.7 kPa	955.7 ± 1.2
160.6 kPa	955.8 ± 1.2
191.9 kPa	955.7 ± 1.2
198.5 kPa	955.7 ± 1.2
199.7 kPa	955.7 ± 1.2
201.6 kPa	955.8 ± 1.2
203.3 kPa	955.6 ± 1.2
206.3 kPa	955.6 ± 1.2
208.7 kPa	955.6 ± 1.2
211.5 kPa	955.7 ± 1.2
213.8 kPa	955.8 ± 1.2
216.2 kPa	955.6 ± 1.2
219 kPa	955.8 ± 1.2
222.1 kPa	955.7 ± 1.2
224.9 kPa	955.7 ± 1.2
228.5 kPa	955.7 ± 1.2
231.8 kPa	955.6 ± 1.2
234.6 kPa	955.7 ± 1.2
237.8 kPa	955.7 ± 1.2
248.7 kPa	955.8 ± 1.2
252.3 kPa	955.7 ± 1.2
256.9 kPa	955.6 ± 1.2
260.9 kPa	955.8 ± 1.2
269.9 kPa	955.8 ± 1.2
274.2 kPa	955.7 ± 1.2
279.5 kPa	955.8 ± 1.2
284.3 kPa	955.8 ± 1.2
289.2 kPa	955.7 ± 1.2
294.6 kPa	955.8 ± 1.2
300.8 kPa	955.7 ± 1.2
306.2 kPa	955.9 ± 1.2
313.2 kPa	955.9 ± 1.2
325.7 kPa	955.8 ± 1.2
332.1 kPa	955.9 ± 1.2
355.4 kPa	955.9 ± 1.2
382.3 kPa	955.9 ± 1.2
391.6 kPa	956 ± 1.2
402.9 kPa	955.9 ± 1.2
412.9 kPa	955.8 ± 1.2
423.9 kPa	955.8 ± 1.2
437.3 kPa	955.8 ± 1.2
478.1 kPa	956 ± 1.2
585.3 kPa	955.9 ± 1.2
606 kPa	955.9 ± 1.2
632.9 kPa	956 ± 1.2
657.4 kPa	955.9 ± 1.2
683.2 kPa	956 ± 1.2
747.4 kPa	956.1 ± 1.2
859.8 kPa	956 ± 1.2
901.9 kPa	956.1 ± 1.2
946 kPa	956.2 ± 1.2
1003.2 kPa	956.3 ± 1.2
1051.3 kPa	956.3 ± 1.2
1084.8 kPa	956.4 ± 1.2
1163.8 kPa	956.3 ± 1.2
1174 kPa	956.4 ± 1.2
1215.6 kPa	956.4 ± 1.2
1248.5 kPa	956.5 ± 1.2
1269 kPa	956.4 ± 1.2
1336.1 kPa	956.5 ± 1.2
1342 kPa	956.5 ± 1.2
1347.9 kPa	956.5 ± 1.2
1355 kPa	956.5 ± 1.2
1360.7 kPa	956.6 ± 1.2
1366.8 kPa	956.5 ± 1.2
1374.4 kPa	956.5 ± 1.2
1380.5 kPa	956.5 ± 1.2
1386.8 kPa	956.6 ± 1.2
1393.9 kPa	956.6 ± 1.2
1400.3 kPa	956.5 ± 1.2
1406.6 kPa	956.7 ± 1.2
1414.7 kPa	956.6 ± 1.2
1515.9 kPa	956.7 ± 1.2
1530.9 kPa	956.7 ± 1.2
1537.8 kPa	956.7 ± 1.2
1547 kPa	956.7 ± 1.2
1554.5 kPa	956.7 ± 1.2
1561.9 kPa	956.7 ± 1.2
1571 kPa	956.8 ± 1.2
1578.6 kPa	956.7 ± 1.2
1586.4 kPa	956.6 ± 1.2
1596.1 kPa	956.6 ± 1.2
1604 kPa	956.7 ± 1.2
1612.1 kPa	956.7 ± 1.2
1637.6 kPa	956.7 ± 1.2
1645.8 kPa	956.8 ± 1.2
1655.5 kPa	956.8 ± 1.2
1664.2 kPa	956.7 ± 1.2
1672.2 kPa	956.7 ± 1.2
1680.7 kPa	956.8 ± 1.2
1690.9 kPa	956.8 ± 1.2
1699.8 kPa	956.8 ± 1.2
1708.3 kPa	956.8 ± 1.2
1756.9 kPa	956.8 ± 1.2
1766.2 kPa	956.7 ± 1.2
1784.8 kPa	956.7 ± 1.2
1795.8 kPa	956.8 ± 1.2
1805 kPa	956.9 ± 1.2
1816.8 kPa	956.8 ± 1.2
1826.5 kPa	956.8 ± 1.2
1836.5 kPa	956.8 ± 1.2
1847 kPa	956.8 ± 1.2
1857.2 kPa	957 ± 1.2
